Test results published in PubChem BioAssay (NCI).
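Dose response: 5 concentrations. Exposure: 48 h. Format: 96-well plates. Endpoint: linear interpolation; highest concentration if not reached. GI50: concentration for 50% inhibition of growth. At the TGI there is no net growth.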 Where a SMILES comes first, the peptide text is derived from it.

Assays:
Test in all cases: growth of human tumour cells (NCI), 48 h
[1] = test system: SW-620 colon
[2] = test system: HL-60(TB) leukemia
[3] = test system: CCRF-CEM leukemia
[4] = test system: KM12 colon
[5] = test system: EKVX NSCLC
[6] = test system: 786-0 renal
[7] = test system: NCI-H460 lung
[8] = test system: RXF 393 renal
[9] = test system: NCI-H226 lung
[10] = test system: PC-3 prostate

SMILES | TGI [1] | TGI [2] | TGI [3] | TGI [4] | TGI [5] | TGI [6] | TGI [7] | TGI [8] | TGI [9] | GI50 [1] | GI50 [2] | GI50 [4] | GI50 [5] | GI50 [9] | GI50 [6] | GI50 [7] | GI50 [10] | TGI [10] | GI50 [8] | GI50 [3]
O=[N+]([O-])c1cc(Cl)ccc1OCc1ccccc1 | > 100 µM | > 100 µM | > 100 µM | > 100 µM | > 100 µM | > 100 µM | > 100 µM | > 100 µM |  |  |  |  |  |  |  |  |  |  |  | 
CCC(C)C1NC(=O)C2CCCN2C(=O)CNC(=O)C(C)NC(=O)C(Cc2ccccc2)NC(=O)C(C(C)C)NC1=O (stereo not drawn) (cyclo(GPIVFA); configuration not given here) | > 100 µM |  |  | > 100 µM | > 100 µM | > 100 µM | > 100 µM | > 100 µM | > 100 µM |  |  |  |  |  |  |  |  |  |  | 
CN1CCN(c2nc(NCCCNc3ccnc4cc(Cl)ccc34)c3ccccc3n2)CC1 | 12.8 µM | 4.39 µM |  | 16.1 µM | 25.3 µM | 12.9 µM | 13.4 µM | 3.72 µM | 41.4 µM | 3.23 µM | 2.14 µM | 4.02 µM | 11.4 µM | 18.9 µM | 3.58 µM | 3.53 µM | 6.14 µM | 20.7 µM | 1.49 µM | 
O=[N+]([O-])c1ccccc1C=NC12CC3CC(CC(C3)C1)C2 | > 100 µM | 57.1 µM | > 100 µM | > 100 µM | > 100 µM | > 100 µM | > 100 µM | > 100 µM | > 100 µM |  |  |  |  |  |  |  |  |  |  | 
CC12CO[C@@](C)(CC(S(=O)(=O)c3ccccc3)C1)O2 (stereo partly drawn) | > 100 µM | > 100 µM | > 100 µM | > 100 µM | > 100 µM | > 100 µM | > 100 µM | > 100 µM |  |  |  |  |  |  |  |  |  |  |  | 
CCCCc1n(Cc2ccc3ccccc3c2)cc[n+]1Cc1ccc2ccccc2c1 | 2.77 µM |  | 4.03 µM |  |  | 2.97 µM |  | 2.49 µM |  | 1.2 µM |  |  |  |  | 1.52 µM |  | 1.11 µM | 2.53 µM | 1.19 µM | 1.52 µM
COc1cc2c(cc1OC)NC(=O)NC(Cc1ccc3c(c1)OCO3)CC2 (stereo not drawn) | > 100 µM | > 100 µM | > 100 µM | > 100 µM | > 100 µM | > 100 µM | > 100 µM | > 100 µM |  |  |  |  |  |  |  |  |  |  |  | 
COC(=O)C1C=NNC1C(=O)OC (stereo not drawn) | > 100 µM | > 100 µM | > 100 µM | > 100 µM | > 100 µM | > 100 µM | > 100 µM | > 100 µM | > 100 µM |  |  |  |  |  |  |  |  |  |  | 
C[C@]1(Cn2ccnn2)C(C(=O)O)N2C(=O)CC2S1(=O)=O (stereo partly drawn) | > 100 µM | > 100 µM |  | > 100 µM |  | > 100 µM | > 100 µM | > 100 µM | > 100 µM | > 100 µM | > 100 µM | > 100 µM |  | > 100 µM | > 100 µM | > 100 µM | > 100 µM | > 100 µM | > 100 µM | 
Cc1ccc(C2=C(c3ccc(C)cc3)C3(c4ccc(C)cc4)C4C(=O)c5ccccc5C(=O)C4C2(c2ccc(C)cc2)S3=O)cc1 (stereo not drawn) | > 100 µM |  | > 100 µM | > 100 µM | > 100 µM | > 100 µM | > 100 µM | > 100 µM | > 100 µM | > 100 µM |  | > 100 µM | > 100 µM | > 100 µM | 69.5 µM | > 100 µM | > 100 µM | > 100 µM | 94.4 µM | > 100 µM
COc1ccc2c(Cl)cc(NC(=O)Nc3c(C)cccc3C)nc2c1 | > 100 µM | > 100 µM |  | > 100 µM |  | > 100 µM | > 100 µM | 24.8 µM | 6.14 µM | 38.9 µM | > 100 µM | 35.7 µM |  | 2.29 µM | 7.92 µM | 4.02 µM | 24.5 µM | > 100 µM | 4.97 µM | 
CN[C@@H](C)[C@H](N)c1ccccc1 | > 100 µM |  | > 100 µM | > 100 µM | > 100 µM | > 100 µM | > 100 µM | > 100 µM | > 100 µM |  |  |  |  |  |  |  |  |  |  | 
CCOC(=N)CC(=O)Nc1cccc(Cl)c1 | > 100 µM | > 100 µM | > 100 µM | > 100 µM | > 100 µM | > 100 µM | > 100 µM | > 100 µM | > 100 µM |  |  |  |  |  |  |  |  |  |  | 
CC(=O)[CH-]C(=O)c1ccccc1.CC(=O)[CH-]C(=O)c1ccccc1.Cl.[O-]c1ccccn1.[O-]c1ccccn1.[Ti+4] | > 100 µM | > 100 µM |  | > 100 µM | > 100 µM | > 100 µM | > 100 µM |  | > 100 µM | > 100 µM | > 100 µM | > 100 µM | > 100 µM | > 100 µM | > 100 µM | > 100 µM |  |  |  | 
COc1ccc2c(c1)[n+]([O-])c(-c1ccc(C)cc1)c(N)[n+]2[O-] | > 100 µM | > 100 µM |  | > 100 µM | > 100 µM | > 100 µM | > 100 µM |  | > 100 µM |  |  |  |  |  |  |  |  |  |  | 
COc1c(-c2ccc(O)c(O)c2)oc2c(O)c(O)cc(O)c2c1=O | 43.9 µM |  | 97.7 µM | > 100 µM | > 100 µM | > 100 µM | > 100 µM |  | > 100 µM |  |  |  |  |  |  |  |  | > 100 µM |  | 
O=C(CC1(O)C(=O)Nc2ccccc21)c1ccc(O)cc1 (stereo not drawn) | > 100 µM | > 100 µM | > 100 µM | > 100 µM | > 100 µM | > 100 µM | > 100 µM | > 100 µM | > 100 µM |  |  |  |  |  |  |  |  |  |  | 
C=C1C2CC(OC(C)=O)C3(C)C(c4ccoc4)OC(=O)[C@@H](O)[C@]13OC1C[C@H](OC(C)=O)C(C)(C)[C@H](CC(=O)OC)[C@]12C (stereo partly drawn) | > 100 µM | > 100 µM | > 100 µM | > 100 µM | > 100 µM | > 100 µM | > 100 µM |  | > 100 µM |  |  |  |  |  |  |  |  |  |  | 
O=S1(=O)CCCS(=O)(=O)C(c2ccccc2)=C1c1ccccc1 | > 100 µM | 44.6 µM | > 100 µM | 79 µM | > 100 µM | > 100 µM | > 100 µM |  | > 100 µM |  |  |  |  |  |  |  |  |  |  | 
